Assay results: EP0329904A1, “Use of quinolizine and quinolizinone derivatives in the manufacture of medicaments for the treatment of anxiety” (MERRELL DOW PHARMACEUTICALS INC., priority 1988, dated 1989)
Counter-ions that a name gives are not always drawn.

Tested on: Von Bezold-Jarisch Reflex induced by 5-HT
Assay: Von Bezold-Jarisch Reflex induced by 5-HT injected intravenously
Type: in vivo
Conditions: rat
From the text: The activity of these compounds against 5-HT can be assessed in vivo by measurement of the effect of the compound on the Von Bezold-Jarisch Reflex induced by 5-HT injected intravenously into the rat (see Paintal A.S., Physiol. Rev. 53, 159-227, 1973; J.R. Fozard, Naunyn-Schmiedeberg's Arch. Pharmacol., 326, 1984, 36-44). The transient cardiac slowing arises from an increased afferent vagus activity arising from stimulation by 5-HT of sensory afferent fibers in and around the heart.

[1] = doses of 0.01-0.1 mg/kg given intravenously
[2] = doses of 0.25-1 mg/kg given orally

SMILES	suppression of the Von Bezold-Jarisch Reflex response [1]	suppression of the Von Bezold-Jarisch Reflex response [2]
Cc1cc(C)cc(C(=O)OC2CC3CC4CC(C2)N3CC4=O)c1 (stereo not drawn) [endo-8-(3,5-dimethylbenzoyloxy)hexahydro-2,6-methano-2H-quinolizin-3(4H)-one]	suppressed the response dose-dependently	suppressed the response dose-dependently
O=C(OC1CC2CC3CC(C1)N2CC3=O)c1c[nH]c2ccccc12 (stereo not drawn) [endo-hexahydro-8-(3-indolylcarbonyloxy)-2,6-methano-2H-quinolizin-3(4H)one hydrochloride]	suppressed the response dose-dependently	suppressed the response dose-dependently
